What was measured:
[1] = Effect of Compound 3 on steady-state pharmacokinetics of olanzapine; format: in vivo, human; details: 200 mg Compound 3 BID with 10 mg olanzapine; days 8 and 15
Protocol: Postprandial triglycerides and lipid profiles were assessed on study days 1, 8, and 15, olanzapine pharmacokinetics was assessed on study days 8 and 15, and safety and tolerability were assessed throughout. On each of these study days, subjects consumed a standardized breakfast (˜900 kcal; 55% of kcal from fat) in 15 minutes. Blood samples were drawn prior to meal consumption and 1, 2, 3, 4, 6 and 8 hours after initiation of meal.

[2] = Lipid profile and glucose; details: for glucose: olanzapine study, healthy volunteers
[3] = Postprandial triglycerides after a standardized breakfast in subjects treated with olanzapine; details: normal healthy volunteers; 10 mg olanzapine alone, or 10 mg olanzapine + 200 mg Compound 3 BID (days 8-15)
[4] = Body weight change during olanzapine treatment
[5] = in vivo

Row | SMILES | impact on the pharmacokinetic profile of olanzapine [1] | LDL-C ([2]; Day 9-15, olanzapine alone vs olanzapine + Compound 3) | glucose [2] | postprandial triglycerides [3] | blunting of body weight gain from olanzapine ([4]; second week of the study, 10 mg olanzapine + 200 mg Compound 3 BID) | SAEs, fatal events, discontinuations due to adverse events [5] | weight gain during the first week of treatment ([4]; normal healthy volunteers, 10 mg olanzapine alone, first week)
1 | COc1cccc(C(=O)Nc2ccc3c(c2)CCN(C(=O)Oc2ccccc2)C3)c1-c1ccc(C(F)(F)F)cc1 [Compound 3] | did not significantly impact | blunted | No changes in glucose were observed | greatly reduced postprandial triglycerides | significant blunting in body weight gain |  | 
2 | Cc1cc2c(s1)Nc1ccccc1N=C2N1CCN(C)CC1 [olanzapine, reference compound] |  |  | No changes in glucose were observed |  |  | No SAEs, fatal events, or discontinuations due to adverse events | significant weight gain

From patent publication US12453728B1, “Compositions comprising inhibitors of microsomal triglyceride transfer protein and Apo-B secretion” (Redux Therapeutics, LLC, priority 2024, dated 2025)
